Results taken from patent US20120185955A1, “HEDGEHOG INHIBITOR ASSAY” (priority 2005, published 2012).

Experiments:
[1] = system: Gli reporter activity in Sufu−/− MEFs; assay: 8×GliLuc luciferase reporter assay in Sufu−/− MEFs; format: cell-based, mouse
Procedure: For the luciferase reporter assays, 20,000 MEF cells were seeded into each well of a 24-well plate in MEF medium. The following day, cells were transfected using FuGENE 6 (Roche) with 300 ng of the luciferase reporter plasmids 8×GliLuc and 8×Gli^mutLuc (58) with or without 300 ng of the pMYC-SUFU expression plasmid (9), 300 ng of a constitutively active PKA catalytic subunit expression plasmid (59) or with 300 ng of the TOPflash and FOPflash reporter plasmids (Upstate Biotechnology), together with 50 ng the Renilla luciferase phRL-TK reporter (Promega) to monitor the transfection efficiency. […] The assays were conducted in triplicate and repeated at least three times. The values were normalized to the Renilla reporter before calculating relative levels.

[2] = system: GLI-induced transcription in Sufu−/− MEFs; assay: Substance testing: Hh/Gli reporter 8×GliLuc in Sufu−/− MEFs (inhibition of GLI-induced transcription); format: cell-based, mouse; details: 72 h of treatment
Procedure: Inhibition of GLI-induced transcription. (A) Sufu^−/− MEFs were transfected with Hh/Gli reporter plasmid 8×GliLuc and a renilla luciferase plasmid for normalisation. Luciferase activity was measured after 72 h of treatment time with the indicated compound.
For the substance testing, Sufu−/− MEF cells are transfected with 8×Gli and phRL-SV40 (or phRL-TK) plasmids using Fugene transfection reagent on larger plates. The day after transfection, cells are replated on suitable microwell plates. When cells reach confluency, substances, which are tested for inhibiting activity, (dissolved in DMSO) are added at a concentration of approximately 10 μM, or any other appropriate concentration. As control, the same volume of only DMSO without test compound is added (reaching a final concentration of e.g. 0.5-2% of DMSO in the cell culture medium) in order to assess solvent-based effects. Cells are lysed approximately 3-4 days later, and luciferase levels are measured using the Dual-Reporter Luciferase system (Promega) or any other suitable method.
Signals were recorded using the Dual Luciferase Kit (Promega) for luciferase measurements and Galacto-Light Plus (Applied Biosystems) for β-Galactosidase measurements.

Gli1 = details: HEK293 cells transfected with Gli1 plasmid; 48 h treatment
Procedure: (§1) Luciferase activity was measured after 72 h of treatment time with the indicated compound. […] (B) Gli1 inhibition, (C) Gli2 inhibition in HEK293 cells. Treatment was for 48 h after transfection of the corresponding Gli plasmid and a Hh/Gli reporter (12×GliBS-Luc) and a renilla luciferase plasmid for normalisation.
(§2) Transfections were done using Fugene (Roche) according to instructions given by the manufacturer.
(§3) Hh reporter assays were performed essentially as described (59, 60). Signals were recorded using the Dual Luciferase Kit (Promega) for luciferase measurements and Galacto-Light Plus (Applied Biosystems) for β-Galactosidase measurements.

Gli2 = details: HEK293 cells transfected with Gli2 plasmid; 48 h treatment
Procedure: as §1, §2, §3

[3] = system: β-Galactosidase reporter enzyme (pSV40-lacZ); assay: Gli-independent β-Galactosidase construct (pSV40-lacZ) control; format: cell-based
[4] = system: EGFP::Gli1 nuclear export in MEFs; assay: GLI1 subcellular localization in MEFs (EGFP::GLI1, confocal); format: cell-based, mouse; details: Wt, Sufu−/− and Ptch1−/− MEFs; 10 ng/ml Leptomycin B, 3-6 hours
Procedure: Wt, Sufu^−/− and Ptch1^−/− MEFs (1×10^6 cells) were each transfected with 5 μg of the expression constructs containing GLI1 cDNA fused in frame 3′ of EGFP [EGFP::GLI1, (9)] or with the parental EGFP plasmid alone (BD Biosciences Clontech) in MEF 1 solution using Nucleofector technology, program T-20 (Amaxa Biosystems), and seeded onto slide chambers followed by culturing overnight. Twenty-four hours after transfection, cells were either treated with 10 ng/ml Leptomycin B (Sigma) for 3-6 hours or left untreated, washed in PBS, fixed in 4% PFA, washed in PBS again and incubated with DRAQ5 (Alexis Biochemicals) for visualization of cell nuclei, followed by mounting using ProLong Gold antifade reagent (Invitrogen). Fluorescence was visualized using a Zeiss LSM510 confocal microscope with lasers set at 488 nm for EGFP and at 633 nm for DRAQ5.

O=S(=O)(NCCNC/C=C/c1ccc(Br)cc1)c1cccc2cnccc12 [H-89]
Effect on the Gli response (8×GliLuc) ([1]; MEFs, 1 μM H-89, one day): no significant effect

C=C[C@@]1(C)CC(=O)[C@]2(O)[C@@]3(C)[C@@H](O)CCC(C)(C)[C@@H]3[C@H](O)[C@H](OC(C)=O)[C@@]2(C)O1 [forskolin]
inhibition at 100 µM ([1]; Mus musculus, 24 h, Sufu−/− MEFs, 100 μM forskolin, one day, read-out: Inhibition of the Gli-mediated response): ~50%

CC1=C2C[C@H]3[C@@H](CC=C4C[C@@H](O)CC[C@@]43C)[C@@H]2CC[C@]12O[C@@H]1C[C@H](C)CN[C@H]1[C@H]2C [Cyclopamine]
Luciferase signal intensity (8×GliLuc, renilla-normalised) [2]: ineffective | Gli1 inhibition (12×GliBS-Luc reporter) (Gli1): inactive | Gli2 inhibition (12×GliBS-Luc reporter) (Gli2): inactive

CN(C)CCCNc1ccc2c(c1)C(=O)c1ccccc1C2=O [GANT55, 2-(3-Dimethylamino-propylamino)-anthraquinone]
Luciferase signal intensity (8×GliLuc, renilla-normalised) [2]: reduces signal intensity in a dose-dependent manner | Unspecific inhibition of the β-Galactosidase reporter enzyme [3]: not due to unspecific inhibition of the reporter enzyme

CNC1CCC(N(Cc2cccc(-c3ccncc3)c2)C(=O)c2sc3ccccc3c2Cl)CC1 (stereo not drawn) [SAG]
Effect on Gli reporter activity (8×GliLuc) ([1]; Sufu−/− MEFs, 10 μM cyclopamine or 100 nM SAG for two days): No further increase in Gli reporter activity

CCC(=C/[C@H](C)C/C=C/C(C)=C/[C@@H](C)C(=O)[C@@H](C)[C@H](O)[C@@H](C)C/C(C)=C/C(=O)O)/C=C/[C@@H]1OC(=O)C=C[C@@H]1C [LMB, Leptomycin B]
Subcellular localization of EGFP::Gli1 fusion protein [4]: strong nuclear retention
